Drawing on PubChem BioAssay (NCI), this text covers TGI and GI50 for 16 molecules.

Structures are written as SMILES. Several values for one entry are separate records, joined by “and”; a condition that tells them apart may be missing. Equal values may be shown once.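 Assay format: 96-well plates, 48-hour exposure. Here, GI50 denotes the concentration required for 50% inhibition of growth. The concentration for full growth arrest is given as TGI.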

The first assay relates to IGROV1 ovarian. Description: DTP human tumour cell line panel, 48 h.
Regarding `O=C(O)CC(NC(=O)CP(=O)(O)O)C(=O)O` (stereo not drawn), the TGI was more than 8280 µM.
`OCc1ccn2c1[C@@H](O)CC2` came in with a TGI of more than 100 µM.
Still for that read-out and setting: with `Cc1[nH]c(/C=C2\C(=O)Nc3ccccc32)c(C)c1CCC(=O)O` the figure was more than 100 µM; with `c1ccc2c(c1)c1c(c3ccccc32)CN2CCCC2C1` (stereo not drawn), 12 µM.
Same read-out and setting: with `NCCSc1nc(-c2ccccc2)c(-c2ccccc2)o1` the figure was more than 100 µM.
Take `O=C(c1ccc(/C=C/c2n[nH]c3ccccc23)cc1)N1CCNCC1`: the GI50 is 5.32 µM and 3.14 µM; the TGI was > 10 µM and 19.1 µM.
As to `CCOC(=O)c1c(NC(=O)c2cccc(C(F)(F)F)c2)sc2c(CN(C)C)c(O)ccc12`, the GI50 is 12.2 µM and the total growth inhibition concentration (TGI) was determined as 28.8 µM.
On to `O=C(Nc1ccc(-n2ccc3c(NC(=O)c4ccccc4)nccc32)cc1)Nc1ccc(Cl)c(Cl)c1`, for which the GI50 was 1.76 µM and the concentration for total growth inhibition (TGI) came to 11 µM.
As to `N#CC1=C(N)Oc2cc(O)ccc2C1c1cccc2ccccc12` (stereo not drawn), the GI50 is 13.1 µM and the TGI is 29.4 µM.
In the same order, the values of `C=C1C(=O)O[C@H]2[C@H]1CC/C(COC(=O)/C=C\C(=O)NCc1ccc(Cn3c(=O)sn(CCCC)c3=O)cc1)=C\CC[C@@]1(C)O[C@@H]21` are 0.556 µM and 1.73 µM.

For a further assay, the system named is NCI-H460 lung. Description: DTP human tumour cell line panel, 48 h.
`C#COc1cccc(Nc2c(C#N)cnc3ncc(NC(=O)CCl)cc23)c1`: the GI50 is 31.9 µM and the TGI was more than 62.5 µM.
Take `CN(CCO)c1ccc(N2Cc3ccccc3OC3=C2C(=O)c2c(O)ccc(O)c2C3=O)cn1`: the GI50 was 0.355 µM and the total growth inhibition concentration (TGI) was found to be 1.35 µM.
Take `CC[C@H]1CN2CCc3cc(OC)c(OC)cc3[C@@H]2C[C@@H]1C[C@H]1NCCc2c1[nH]c1ccc(O)cc21`: the GI50 is 0.0252 µM and 0.0398 µM; the concentration for total growth inhibition (TGI) was 0.0912 µM and 0.395 µM and 0.0422 µM.
On to `CCCCCOc1ccc(/C=N/Nc2cc(C)nc3ccc(Br)cc23)cc1`, for which the GI50 is 1.94 µM and the total growth inhibition concentration (TGI) was determined as 3.7 µM.
As for `CC(=O)Oc1ccccc1C(=O)Nc1ncc([N+](=O)[O-])s1`, the GI50 was 2.76 µM; the concentration for total growth inhibition (TGI) was 12.2 µM and > 100 µM.
In the case of `O=C1NC(=O)C(c2cccc([N+](=O)[O-])c2)=C1Nc1cc(Cl)c(O)c(Cl)c1`, the GI50 was more than 23.4 µM and the TGI is more than 25 µM.
`O=C(O)CC(NC(=O)CP(=O)(O)O)C(=O)O` (stereo not drawn): the GI50 is 79.5 µM and the TGI is more than 8670 µM.
`OCc1ccn2c1[C@@H](O)CC2` registered a total growth inhibition concentration (TGI) of more than 100 µM.
Turning to `Cc1[nH]c(/C=C2\C(=O)Nc3ccccc32)c(C)c1CCC(=O)O`, the GI50 is 21.3 µM; the concentration for total growth inhibition (TGI) was 57 µM and > 100 µM.
Turning to `c1ccc2c(c1)c1c(c3ccccc32)CN2CCCC2C1` (stereo not drawn), the TGI is more than 100 µM.
In the case of `NCCSc1nc(-c2ccccc2)c(-c2ccccc2)o1`, the TGI was more than 100 µM.
Consider `O=C(c1ccc(/C=C/c2n[nH]c3ccccc23)cc1)N1CCNCC1`, for which the GI50 is 1.87 µM and 1.09 µM; the total growth inhibition concentration (TGI) was 3.58 µM and 12.7 µM.
Turning to `CCOC(=O)c1c(NC(=O)c2cccc(C(F)(F)F)c2)sc2c(CN(C)C)c(O)ccc12`, the GI50 is 2.19 µM and the concentration for total growth inhibition (TGI) was 4.76 µM.
On to `O=C(Nc1ccc(-n2ccc3c(NC(=O)c4ccccc4)nccc32)cc1)Nc1ccc(Cl)c(Cl)c1`, for which the GI50 was 0.358 µM and the TGI came to 1.78 µM.
In the same order, the values of `N#CC1=C(N)Oc2cc(O)ccc2C1c1cccc2ccccc12` (stereo not drawn) are 12.4 µM and 32.5 µM.
With `C=C1C(=O)O[C@H]2[C@H]1CC/C(COC(=O)/C=C\C(=O)NCc1ccc(Cn3c(=O)sn(CCCC)c3=O)cc1)=C\CC[C@@]1(C)O[C@@H]21`, the GI50 is 1.27 µM and the TGI worked out at 2.73 µM.

The test system of a further assay is NCI-H522 lung. The assay can be described thus: DTP human tumour cell line panel, 48 h.
As for `C#COc1cccc(Nc2c(C#N)cnc3ncc(NC(=O)CCl)cc23)c1`, the GI50 was 9.77 µM and the TGI turned out to be 21.4 µM.
In the same order, the values of `CN(CCO)c1ccc(N2Cc3ccccc3OC3=C2C(=O)c2c(O)ccc(O)c2C3=O)cn1` are 0.0323 µM and 0.116 µM.
On to `CC[C@H]1CN2CCc3cc(OC)c(OC)cc3[C@@H]2C[C@@H]1C[C@H]1NCCc2c1[nH]c1ccc(O)cc21`, for which the concentration for 50% growth inhibition (GI50) is 0.00347 µM and 0.00354 µM; the total growth inhibition concentration (TGI) is 0.0164 µM and 0.0108 µM.
As for `CCCCCOc1ccc(/C=N/Nc2cc(C)nc3ccc(Br)cc23)cc1`, the GI50 was 2.06 µM and the TGI stood at 4.71 µM.
Regarding `CC(=O)Oc1ccccc1C(=O)Nc1ncc([N+](=O)[O-])s1`, the GI50 was 1.63 µM; the TGI is 6.2 µM and 21.7 µM.
As to `O=C1NC(=O)C(c2cccc([N+](=O)[O-])c2)=C1Nc1cc(Cl)c(O)c(Cl)c1`, the GI50 is more than 16.5 µM and the total growth inhibition concentration (TGI) was more than 25 µM.
Taken in the same sequence, the figures for `O=C(O)CC(NC(=O)CP(=O)(O)O)C(=O)O` (stereo not drawn) were 78.3 µM and 9910 µM.
With `OCc1ccn2c1[C@@H](O)CC2`, the concentration for total growth inhibition (TGI) is more than 100 µM.
The molecule `Cc1[nH]c(/C=C2\C(=O)Nc3ccccc32)c(C)c1CCC(=O)O` came in with a concentration for total growth inhibition (TGI) of more than 100 µM.
Consider `c1ccc2c(c1)c1c(c3ccccc32)CN2CCCC2C1` (stereo not drawn), for which the concentration for total growth inhibition (TGI) was 9.9 µM.
`NCCSc1nc(-c2ccccc2)c(-c2ccccc2)o1`: the TGI is more than 100 µM.
With `O=C(c1ccc(/C=C/c2n[nH]c3ccccc23)cc1)N1CCNCC1`, the GI50 was 1.72 µM and 11 µM; the TGI was 3.52 µM and 26.5 µM.
Consider `CCOC(=O)c1c(NC(=O)c2cccc(C(F)(F)F)c2)sc2c(CN(C)C)c(O)ccc12`, for which the GI50 was 5.03 µM and the total growth inhibition concentration (TGI) worked out at 28 µM.
Consider `O=C(Nc1ccc(-n2ccc3c(NC(=O)c4ccccc4)nccc32)cc1)Nc1ccc(Cl)c(Cl)c1`, for which the GI50 was 1.45 µM and the concentration for total growth inhibition (TGI) is 3.7 µM.

The term TGI denotes the concentration giving total growth inhibition. Read a high TGI as less potent growth arrest. In general, GI50 refers to the concentration giving 50% growth inhibition.
